Measured values from ChEMBL document CHEMBL1201862, “PubChem BioAssay data set” (2004).
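Where inhibition never reached the appropriate level, the endpoint shown equals the highest concentration tested. Otherwise, values were interpolated linearly from a five-concentration, 48-hour dose response in 96-well plates. The concentration for 50% growth inhibition is given as GI50.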 Calls of active or inactive are those of the source. Rule as the data show it: active = GI50 up to about 1.1 µM and inactive = higher.

Assays:
Assay in all cases: NCI tumour cell line growth inhibition, 48 h
[1] = system: ACHN
[2] = system: UACC-62
[3] = system: HCT-116
[4] = system: KM12
[5] = system: IGROV-1
[6] = system: A549
[7] = system: HOP-62
[8] = system: HOP-92
[9] = system: MDA-MB-231
[10] = system: M14
[11] = system: SW-620
[12] = system: SK-MEL-5
[13] = system: NCI-H23
[14] = system: HCT-15
[15] = system: SN12C
[16] = system: RPMI-8226
[17] = system: CCRF-CEM
[18] = system: MDA-MB-435
[19] = system: OVCAR-4

Measured: GI50

CCCCCC(O)C1C(=O)OC(C)C(O)/C=C/C=C/C=C/C=C\C=C(\C)C(O)CC(O)CC(O)CC(O)CC(O)CC(O)CC1O (stereo unspecified)
inactive: [1] > 50 µM | [2] > 50 µM | [3] > 50 µM | [4] > 50 µM | [5] > 50 µM | [6] > 50 µM | [7] > 50 µM | [8] > 50 µM | [9] > 50 µM | [10] > 50 µM | [11] > 50 µM | [12] > 50 µM | [13] > 50 µM | [15] > 50 µM | [16] > 50 µM | [17] > 50 µM | [18] > 50 µM | [19] 11.1 µM
> 50 µM: [14]

COc1nc2ccc(COc3ccc(C(=O)NC(CCC(=O)O)C(=O)O)cc3)cc2nc1OC (stereo unspecified)
> 10 µM: [14]
inactive: [1] > 10 µM | [2] > 10 µM | [4] > 10 µM | [5] > 10 µM | [6] > 10 µM | [7] > 10 µM | [8] > 10 µM | [9] > 10 µM | [10] > 10 µM | [11] > 10 µM | [12] > 10 µM | [13] > 10 µM | [15] > 10 µM | [16] > 10 µM | [17] > 10 µM | [18] > 10 µM | [19] > 10 µM

N#CC(/N=N/c1ccccc1)c1nc2ccccc2o1 (stereo unspecified)
> 100 µM: [14]
inactive: [1] 19.3 µM | [2] 37.7 µM | [3] 21.7 µM | [4] 49.7 µM | [5] 16.1 µM | [6] 27.4 µM | [7] 20.3 µM | [8] 15 µM | [9] 20.8 µM | [10] 44.8 µM | [12] 86.9 µM | [13] 18.6 µM | [15] 83.4 µM | [16] 23.6 µM | [17] 34.6 µM | [18] > 100 µM | [19] 11.2 µM

COc1ccc2c(c1)CC[C@@H]1[C@@H]2CC[C@]2(C)[C@@H](O)/C(=C/c3ccncc3)C[C@@H]12
inactive: [1] 26.5 µM | [2] 13.8 µM | [3] 11 µM | [4] 9.71 µM | [5] 14.9 µM | [6] 9.84 µM | [7] 16.9 µM | [8] 14 µM | [9] 14.2 µM | [10] 11.3 µM | [11] 6.41 µM | [12] 9.75 µM | [13] 12.8 µM | [15] 22.8 µM | [16] 3.69 µM | [17] 11.1 µM | [18] 9.77 µM | [19] 23.2 µM
6.95 µM: [14]

O=Cc1ccc(-c2cccc([N+](=O)[O-])c2)s1
> 100 µM: [14]
inactive: [1] > 100 µM | [2] > 100 µM | [3] > 100 µM | [4] > 100 µM | [5] > 100 µM | [6] > 100 µM | [7] > 100 µM | [8] > 100 µM | [9] > 100 µM | [10] > 100 µM | [11] > 100 µM | [12] > 100 µM | [13] > 100 µM | [15] > 100 µM | [16] 67 µM | [17] 96.2 µM | [18] > 100 µM | [19] > 100 µM

c1cc(CSP234N5CCN2CCN3CCN4CC5)ccc1CSP123N4CCN1CCN2CCN3CC4
> 100 µM: [14]
inactive: [1] > 100 µM | [2] > 100 µM | [3] 72.8 µM | [4] > 100 µM | [5] > 100 µM | [6] > 100 µM | [7] > 100 µM | [8] 92.3 µM | [9] 62.7 µM | [10] > 100 µM | [11] > 100 µM | [12] > 100 µM | [13] > 100 µM | [15] > 100 µM | [16] 16.4 µM | [17] 27.4 µM | [18] 97.3 µM | [19] > 100 µM

C=C1C[C@@H]2CC[C@@]34CC5O[C@H]6C(O[C@H]7CC[C@H](CC(=O)O[C@@H]8[C@@H](C)[C@@H]9O[C@@H]%10C[C@]%11(C[C@@H]%12O[C@]%13(C[C@H](C)[C@@H]%14O[C@@H]%15CC(C(O)CO)O[C@@H]%15C[C@@H]%14O%13)C[C@H](C)[C@@H]%12O%11)O[C@@H]%10C[C@@H]9O[C@H]8CC8O[C@@H](CC[C@@H]1O2)C[C@@H](C)C8(O)CO)O[C@@H]7[C@@H]6O3)[C@H]5O4 (stereo partly specified)
active: [1] > 1 µM | [2] 0.481 µM | [3] 0.627 µM | [4] > 0.726 µM | [5] 0.516 µM | [6] > 0.891 µM | [7] > 1 µM | [8] > 0.615 µM | [9] > 1 µM | [10] > 0.944 µM | [11] > 0.736 µM | [12] 0.624 µM | [13] > 0.473 µM | [15] > 1 µM | [16] > 0.849 µM | [17] > 1 µM | [18] 0.294 µM | [19] > 1 µM
> 0.638 µM: [14]

Cc1ccc(OCC2OC(n3cnc4nc(N)nc(Cl)c43)CC2Oc2ccc(C)cc2)cc1 (stereo unspecified)
inactive: [1] 15.2 µM | [2] 27.5 µM | [3] 22 µM | [4] 21 µM | [5] 18.5 µM | [6] 21.3 µM | [7] 22.3 µM | [8] 17.3 µM | [9] 34.6 µM | [10] 15.8 µM | [11] 32.5 µM | [12] 19.7 µM | [13] 15.6 µM | [15] 15.8 µM | [16] 7.98 µM | [17] 45.1 µM | [18] 27.9 µM | [19] 23.2 µM
14.9 µM: [14]

C=CC1(C)OC2(CCN(C(=O)OCC)CC2)OC1C (stereo unspecified)
> 100 µM: [14]
inactive: [1] > 100 µM | [2] > 100 µM | [4] > 100 µM | [5] > 100 µM | [6] > 100 µM | [7] > 100 µM | [8] > 100 µM | [9] > 100 µM | [10] > 100 µM | [11] > 100 µM | [12] > 100 µM | [13] > 100 µM | [16] > 100 µM | [17] > 100 µM | [18] > 100 µM | [19] > 100 µM

CCOC(=O)/C=C/C1(CCOC(C)=O)CCCCC1
inactive: [1] > 10 µM | [2] > 10 µM | [3] > 10 µM | [4] > 10 µM | [5] > 10 µM | [6] > 10 µM | [7] > 10 µM | [8] > 10 µM | [9] > 10 µM | [10] > 10 µM | [11] > 10 µM | [12] > 10 µM | [13] > 10 µM | [15] > 10 µM | [16] > 10 µM | [17] > 10 µM | [18] > 10 µM | [19] > 10 µM
> 10 µM: [14]

CN(CCC#N)c1ccc(/C=C2\SC(=S)NC2=O)cc1
48.2 µM: [14]
inactive: [1] 62.4 µM | [2] 19.8 µM | [3] 29.2 µM | [4] 40.7 µM | [5] > 100 µM | [6] 34.1 µM | [7] 41.3 µM | [8] 22.6 µM | [9] 56 µM | [10] 67.6 µM | [11] 58.2 µM | [12] 52 µM | [13] 39.5 µM | [15] 80.4 µM | [16] 34 µM | [17] 6.75 µM | [18] 31.6 µM | [19] 62.8 µM

CSc1nc(C)c2c(n1)SCC2
inactive: [1] > 10 µM | [2] > 10 µM | [3] > 10 µM | [4] > 10 µM | [5] > 10 µM | [6] > 10 µM | [7] > 10 µM | [8] > 10 µM | [9] > 10 µM | [10] > 10 µM | [11] > 10 µM | [12] > 10 µM | [13] > 10 µM | [15] > 10 µM | [16] > 10 µM | [17] > 10 µM | [18] > 10 µM | [19] > 10 µM
> 10 µM: [14]

CCC(c1c[nH]c2ccc(Br)cc12)c1c[nH]c2ccc(Br)cc12
inactive: [1] 3.65 µM | [2] 10.2 µM | [3] 3.94 µM | [4] 1.97 µM | [5] 4.41 µM | [6] 3.72 µM | [7] 10.5 µM | [8] 2.05 µM | [9] 11.1 µM | [10] 3.22 µM | [11] 3.94 µM | [12] 8.11 µM | [13] 2.96 µM | [15] 3.7 µM | [16] 2.5 µM | [17] 2.95 µM | [18] 3.13 µM | [19] 2.75 µM
4.01 µM: [14]

CC1=C/C(=N\NC(N)=S)C(C(O)(C(F)(F)F)C(F)(F)F)C(C)(C)C1 (stereo unspecified)
inactive: [1] > 10 µM | [2] > 10 µM | [3] > 10 µM | [4] > 10 µM | [5] > 10 µM | [6] > 10 µM | [7] > 10 µM | [8] > 10 µM | [9] > 10 µM | [10] > 10 µM | [11] > 10 µM | [12] > 10 µM | [13] > 10 µM | [15] > 10 µM | [16] > 10 µM | [17] > 10 µM | [18] > 10 µM | [19] > 10 µM
> 10 µM: [14]

Cc1sc2nc3n(c(=O)c2c1C)N=CN(c1ccc(F)cc1)C3
inactive: [1] 29 µM | [2] > 100 µM | [3] 23.8 µM | [4] > 100 µM | [5] 61.9 µM | [6] 43.9 µM | [7] 23.8 µM | [8] 24.2 µM | [9] 59 µM | [10] > 100 µM | [11] > 100 µM | [12] > 100 µM | [13] > 100 µM | [15] 32.9 µM | [16] > 100 µM | [17] > 100 µM | [18] > 100 µM | [19] 18.7 µM
> 100 µM: [14]
